From US20250051327A1, “MALT-1 MODULATORS” (EXSCIENTIA AI LIMITED, priority 2020, published 2025)
pIC50: −log10 of the molar value.

What follows are compounds tested on IL-2 secretion by human effector memory T cells (TEM) (assay: Effector memory T cells IL-2 release assay). Settings: T-cell; human CD4+ effector memory T cells, CD3/CD28 bead stimulation, 24 h; read-out: CD4TC IL2 IC50.
Format: cell-based
Method: Effector Memory T Cells IL-2 Release Assay
Test compound-mediated inhibition of NFκB signalling in T cells was assessed by quantification of the IL-2 secretion by human effector memory T cells (TEM) upon treatment and stimulation. Human TEM cells were isolated from buffy coats of healthy donors obtained from the French blood bank. First, peripheral blood mononuclear cells (PBMC) were purified from buffy coats diluted 1:1 with DPBS (Gibco, cat #14190-094) by Pancoll (PAN BIOTECH, cat #P04-60500) density gradient centrifugation at 400×g for 20 minutes. TEM cells were further enriched by negative immuno-magnetic cell sorting using a human CD4+ Effector Memory T Cell Isolation Kit (Miltenyi, cat #130-094-125) according to the manufacturer's instructions. Aliquots of 3×10E6 purified TEM cells were kept frozen in Cryo-SFM medium (PromoCell, cat #C-29912) in gas phase nitrogen until used. Cell purity was verified by flow cytometry analysis of 200 000 PFA-fixed cells previously labelled with monoclonal antibodies anti-CD4-PerCP-Cy5.5 (BD Pharmigen, cat #332772), anti-CD8-V500 (BD Biosciences, cat #561617), anti-CD14-Pacific Blue (Biolegend, cat #325616), anti-CD45 RA-FITC (Biolegend, cat #304106) and anti-CCR7-APC (in CD4+ Effector Memory T Cell Isolation Kit, Miltenyi, cat #130-094-125).
TEM cells were resuspended in complete RPMI medium composed of: RPMI 1640 (Gibco, cat #31870-025), 10% heat inactivated fetal bovine serum (Sigma, cat #F7524), 2 mM GlutaMAX (Gibco, cat #35050-038), 1 mM sodium pyruvate 100× (Gibco, cat #11360-039), 1% MEM non-essential amino acids solution (Gibco, cat #11140-035) and 100 U/mL penicillin, 100 μg/mL streptomycin (Sigma-Aldrich, cat #11074440001). 5,000 cells per well were plated onto flat clear bottom 384 well plates (Corning, cat #3770). 5,000 Dynabeads Human T-Activator CD3/CD28 (Gibco, cat #11132D) were added to each well for cell stimulation. Finally, 10 doses of test compound, originally prepared in DMSO by serial semi-log step dilution, were also added to cells in triplicate wells. Final DMSO concentration in wells was 0.1% in a total volume of 100 μL complete medium. Plates were incubated for 24 h at 37° C. in 5% CO2 atmosphere. After incubation, cell suspensions were centrifuged at 400×g and culture supernatants were recovered and stored at −80° C. Cell viability was assessed by flow cytometry after staining the cells with Fixable Viability Dye eFluor 780 (Invitrogen, cat #65-0865-14). IL-2 levels were determined in cell supernatants using an HTRF human IL-2 detection kit (Cisbio, cat #62HIL02PEH). IL-2 data at the different compound doses were fitted to a 4-parameter logistic curve to determine IC50 values, corresponding to the compound concentration leading to 50% reduction of the maximal IL-2 levels observed in each experiment. Viability data were analysed similarly to exclude cytotoxicity as a cause of IL-2 decrease (see Table 1).

Compound | pIC50
CN(C(=O)[C@H]1CC[S@@](=N)(=O)CC1)[C@@H](c1ccc(N2CC(C)(C)Cc3c2cnc2cc(Cl)nn32)cc1)C(F)(F)F [CPD0073498, (1rel s, 4rel s)-N-[(1S)-1-(4-{4-chloro-12,12-dimethyl-2,3,7,10-tetraazatricyclo[7.4.0.0^2,6]trideca-1(9),3,5,7-tetraen-10-yl}phenyl)-2,2,2-trifluoroethyl]-1-imino-N-methyl-1-oxo-1λ^6-thiane-4-carboxamide] | 6.79
COc1ccc2ncc(Nc3ccc([C@H](N(C)C(=O)C4CCS(=O)(=O)CC4)C(F)(F)F)cc3)c([C@H](C)OC)c2n1 (relative stereo) [CPD0019170, N-methyl-1,1-dioxo-N-[(1S)-2,2,2-trifluoro-1-[4-({6-methoxy-4-[(1 rel S)-1-methoxyethyl]-1,5-naphthyridin-3-yl}amino)phenyl]ethyl]-1λ^6-thiane-4-carboxamide] | 7.70
COc1ccc2ncc(Nc3ccc([C@H](N(C)C(=O)C4CCS(=O)(=O)CC4)C(F)(F)F)cn3)c([C@@H](C)OC)c2n1 (relative stereo) [CPD0019006, N-methyl-1,1-dioxo-N-[(1S)-2,2,2-trifluoro-1-[6-({6-methoxy-4-[(1 rel S)-1-methoxyethyl]-1,5-naphthyridin-3-yl}amino)pyridin-3-yl]ethyl]-1λ^6-thiane-4-carboxamide] | 6.74
CN(C(=O)[C@H]1CCN(C(=O)CC#N)C1)[C@@H](c1ccc(N2CCCc3c2cnc2cc(Cl)nn32)cc1)C(F)(F)F [CPD0073191, (3rel-S)-N-[(1S)-1-[4-(4-chloro-2,3,7,10-tetrazatricyclo[7.4.0.0^2,6]trideca-1(9),3,5,7-tetraen-10-yl)phenyl]-2,2,2-trifluoro-ethyl]-1-(2-cyanoacetyl)-N-methyl-pyrrolidine-3-carboxamide] | 6.83
COc1ccc2ncc(Nc3ccc([C@H](N(C)C(=O)[C@@H]4CCC(=O)N4)C(F)(F)F)cc3)c([C@H](C)OC)c2n1 (relative stereo) [CPD0075580, (2 rel S)-N-methyl-5-oxo-N-[(1S)-2,2,2-trifluoro-1-[4-[[6-methoxy-4-[(1 rel S)-1-methoxyethyl]-1,5-naphthyridin-3-yl]amino]phenyl]ethyl]pyrrolidine-2-carboxamide] | 7.46
COc1ccc2ncc(Nc3ccc([C@H](N(C)C(=O)[C@H]4CCC(=O)N4)C(F)(F)F)cc3)c([C@H](C)OC)c2n1 (relative stereo) [CPD0075581, (2 rel R)-N-methyl-5-oxo-N-[(1S)-2,2,2-trifluoro-1-[4-[6-methoxy-4-[(1 rel S)-1-methoxyethyl]-1,5-naphthyridin-3-yl]amino]phenyl]ethyl]pyrrolidine-2-carboxamide] | 7.54
CN(C(=O)C1CCS(=O)(=O)CC1)[C@@H](c1ccc(N2CC3(CC3)Cc3c2cnc2cc(Cl)nn32)cc1)C(F)(F)F [CPD0022148, N-[(1S)-1-(4-{4′-chloro-2′,3′,7′,10′-tetraazaspiro[cyclopropane-1,12′-tricyclo[7.4.0.0^2,6]tridecane]-1′(9′),3′,5′,7′-tetraen-10′-yl}phenyl)-2,2,2-trifluoroethyl]-N-methyl-1,1-dioxo-1λ^6-thiane-4-carboxamide] | 6.94
COC[C@@H]1CCN(c2ccc([C@H](N(C)C(=O)C3CCS(=O)(=O)CC3)C(F)(F)F)cc2)c2cnc3cc(Cl)nn3c21 [CPD0073503, N-[(1S)-1-[4-[(13rel-R)-4-chloro-13-(methoxymethyl)-2,3,7,10-tetrazatricyclo[7.4.0.0^2,6]trideca-1(9),3,5,7-tetraen-10-yl]phenyl]-2,2,2-trifluoro-ethyl]-N-methyl-1,1-dioxo-16-thiane-4-carboxamide] | 6.68
CN(C(=O)C1CCS(=O)(=O)CC1)[C@@H](c1ccc(N2CCC3(CC3)c3c2cnc2cc(Cl)nn32)cc1)C(F)(F)F [CPD0019590, N-[(1S)-1-(4-{4′-chloro-2′,3′,7′, 10′-tetraazaspiro[cyclopropane-1,13′-tricyclo[7.4.0.0^2,6]tridecane]-1′(9′),3′,5′,7′-tetraen-10′-yl}phenyl)-2,2,2-trifluoroethyl]-N-methyl-1,1-dioxo-1λ^6-thiane-4-carboxamide] | 7.43
COc1ccc2ncc(Nc3ccc([C@H](N(C)C(=O)C4CCS(=O)(=O)CC4)C(F)(F)F)cc3)c([C@@H]3CCOC3)c2n1 [CPD0074040] | 7.48
CN(C(=O)C1CCS(=O)(=O)CC1)[C@@H](c1ccc(N2CC[C@@]3(CCOC3)c3c2cnc2cc(Cl)nn32)cc1)C(F)(F)F [CPD0073762, N-[(1S)-1-[4-[(13rel-R)-4-chlorospiro[2,3,7,10-tetrazatricyclo[7.4.0.0^2,6]trideca-1(9),3,5,7-tetraene-13,3′-tetrahydrofuran]-10-yl]phenyl]-2,2,2-trifluoro-ethyl]-N-methyl-1,1-dioxo-1λ^6-thiane-4-carboxamide] | 6.98
O=C(CC1CS(=O)(=O)C1)N[C@@H](c1ccc(N2CCCc3c2cnc2cc(Cl)nn32)cc1)C(F)(F)F [CPD0073535] | 5.68
C[C@H]1CCN(c2ccc([C@H](N(C)C(=O)[C@H]3CC[S@@](=N)(=O)CC3)C(F)(F)F)cc2)c2cnc3cc(F)nn3c21 (relative stereo) [CPD0074554, (1rel r, 4rel r)1-imino-N-methyl-1-oxo-N-[(1S)-2,2,2-trifluoro-1-[4-[(13 rel S)-4-fluoro-13-methyl-2,3,7,10-tetrazatricyclo[7.4.0.0^2,6]trideca-1(9),3,5,7-tetraen-10-yl]phenyl]ethyl]thiane-4-carboxamide] | 6.77
CN(C(=O)[C@@H]1CS(=O)(=O)CC12COC2)[C@@H](c1ccc(N2CCCc3c2cnc2cc(Cl)nn32)cc1)C(F)(F)F [CPD0073974, (8rel-R)-N-[(1S)-1-(4-{4-chloro-2,3,7,10-tetraazatricyclo[7.4.0.0^2,6]trideca-1(9),3,5,7-tetraen-10-yl}phenyl)-2,2,2-trifluoroethyl]-N-methyl-6,6-dioxo-2-oxa-6λ^6-thiaspiro[3.4]octane-8-carboxamide] | 6.47
COC[C@H]1CCN(c2ccc([C@H](N(C)C(=O)C3CCS(=O)(=O)CC3)C(F)(F)F)cc2)c2cnc3cc(Cl)nn3c21 [CPD0073504, N-[(1S)-1-[4-[(13rel-S)-4-chloro-13-(methoxymethyl)-2,3,7,10-tetrazatricyclo[7.4.0.0^2,6]trideca-1(9),3,5,7-tetraen-10-yl]phenyl]-2,2,2-trifluoro-ethyl]-N-methyl-1,1-dioxo-1λ^6-thiane-4-carboxamide] | 7.06
COc1ccc2ncc(Nc3ccc([C@H](N(C)C(=O)C4CCS(=O)(=O)CC4)C(F)(F)F)cc3)c(C3(OC)COC3)c2n1 [CPD0076414, N-methyl-1,1-dioxo-N-[(1S)-2,2,2-trifluoro-1-[4-[6-methoxy-4-(3-methoxyoxetan-3-yl)-1,5-naphthyridin-3-yllamino]phenyl]ethyl]thiane-4-carboxamide] | 6.57
COC[C@]1(C)CCN(c2ccc([C@H](N(C)C(=O)C3CCS(=O)(=O)CC3)C(F)(F)F)cc2)c2cnc3cc(Cl)nn3c21 [CPD0073140, N-[(1S)-1-[4-[(13rel-R)-4-chloro-13-(methoxymethyl)-13-methyl-2,3,7,10-tetrazatricyclo[7.4.0.0^2,6]trideca-1(9),3,5,7-tetraen-10-yl]phenyl]-2,2,2-trifluoro-ethyl]-N-methyl-1,1-dioxo-1λ^6-thiane-4-carboxamide] | 6.72
COc1ccc2ncc(Nc3ccc([C@H](N(C)C(=O)C4CCS(=O)(=O)CC4)C(F)(F)F)cc3)c([C@H]3CCCO3)c2n1 (relative stereo) [CPD0074043, N-methyl-1,1-dioxo-N-[(1S)-2,2,2-trifluoro-1-[4-[6-methoxy-4-[(2 rel-R)-tetrahydrofuran-2-yl]-1,5-naphthyridin-3-yl]amino]phenyl]ethyl]thiane-4-carboxamide] | 7.10
COc1ccc2ncc(Nc3ccc([C@H](N(C)C(=O)C4CCS(=O)(=O)CC4)C(F)(F)F)cn3)c(C(C)OC)c2n1 (stereo partly shown) [CPD0019007] | 6.94
